The values that follow come from patent US11840528B2 (Hoffmann-La Roche Inc., priority 2018, dated 2023).

In test [1] the target is T1, h-GABA-A α5β3γ2 (Homo sapiens, UniProt P18507+P31644). Briefly: Two-electrode voltage clamp electrophysiology in Xenopus laevis oocytes expressing GABAA receptors, modulation of GABA EC20 current. The format is cell-based. The arrangement: host or cells: Xenopus laevis oocytes micro-injected with RNA transcripts of the subunits. An outline of the steps: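 Modulation is reported as % of the GABA EC20 current, calculated as 100*(Fold increase−1) from the peak ratio between a second GABA response carrying compound (applied at roughly 30-fold Ki) and a preceding control response. Oocytes expressing human α5β3γ2 were clamped at −80 mV at room temperature, 3–5 days after injection.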

In test [2] the target is T1, h-GABA-A α5β3γ2. In words: [3H]flumazenil competition binding assay, membranes of HEK293 cells expressing GABAA receptors. An outline of the steps: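 Receptor source: human α5β3γ2 transiently transfected into HEK293 cells, membranes in pH 7.5 Krebs-tris. Filtration through GF/C, then scintillation counting.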
Where [3] appears, read: % modulation of GABA EC20 = 100*(Fold increase-1), Table 1.
The mark [4] stands for this setting: test compound at approx. 30 fold its Ki, GABA at EC20, Table 1.
The mark [5] stands for this setting: displacement of [3H]-Flumazenil 0.5 nM, HEK293 cells expressing human receptors, mean of two determinations, Table 1.

Take `Cc1onc(-c2ccc(C(F)(F)F)nc2)c1Cn1ncc(N2CCN(C(=O)C3(C)CC3)CC2)cc1=O` [Example 40, 5-[4-(1-methylcyclopropanecarbonyl)piperazin-1-yl]-2-[[5-methyl-3-[6-(trifluoromethyl)-3-pyridyl]isoxazol-4-yl]methyl]pyridazin-3-one]: in test [1] (setting [3]), the “Efficacy (GABA) %” value amounted to 250%. The “Fold increase h-GABA-A α5β3γ2 oocyte” value in test [1] (setting [4]) was 3.5. Further, the Ki in test [2] (setting [5]) amounted to 43.3 nM.

Take `CCn1nccc1C1CCN(c2cnn(Cc3c(-c4ccc(C)nc4)noc3C)c(=O)c2)CC1` [Example 167, 5-[4-(2-ethylpyrazol-3-yl)-1-piperidyl]-2-[[5-methyl-3-(6-methyl-3-pyridyl)isoxazol-4-yl]methyl]pyridazin-3-one]: the “Efficacy (GABA) %” value in test [1] (setting [3]) was 195%. For the same compound, the “Fold increase h-GABA-A α5β3γ2 oocyte” value in test [1] (setting [4]) is reported as 2.95. In test [2] (setting [5]), this compound gave a Ki of 2.2 nM.

As to `Cc1onc(-c2ccccc2)c1COc1ccc(N2CCCC2)nn1` [RO-035, reference compound], the “Efficacy (GABA) %” value in test [1] (reference compounds, % modulation of GABA EC20, Table 2) is given as −35%. For the same compound, the “Fold increase h-GABA-A α5β3γ2 oocyte” value in test [1] (reference compounds, Table 2) is given as 0.65. This compound registered a Ki in test [2] (reference compounds, Table 2) of 10.5 nM.

Regarding `COc1ncc(-c2cnn(Cc3c(-c4ccc(Cl)nn4)noc3C)c(=O)c2)cc1Cl` [Example 282, 5-(5-chloro-6-methoxypyridin-3-yl)-2-((3-(6-chloropyridazin-3-yl)-5-methylisoxazol-4-yl)methyl)pyridazin-3(2H)-one], the “Efficacy (GABA) %” value in test [1] (setting [3]) is reported as 166%. Besides, the “Fold increase h-GABA-A α5β3γ2 oocyte” value in test [1] (setting [4]) was found to be 2.66. For the same compound, in test [2] (setting [5]), affinity was put at a Ki of 1.5 nM.

Turning to `CCn1cc(-c2cnn(Cc3c(-c4ccc(C)nc4)noc3C)c(=O)c2)cn1` [Example 155, 5-(1-ethyl-1H-pyrazol-4-yl)-2-((5-methyl-3-(6-methylpyridin-3-yl)isoxazol-4-yl)methyl)pyridazin-3(2H)-one], the “Efficacy (GABA) %” value in test [1] (setting [3]) was 133%. Besides, in test [1] (setting [4]), the “Fold increase h-GABA-A α5β3γ2 oocyte” value is recorded as 2.33. The Ki in test [2] (setting [5]) came to 21.6 nM.

Consider `Cc1ccc(-c2noc(C)c2Cn2ncc(N3CC[C@@H](OC(C)(C)C)C3)cc2=O)cn1` [Example 90, 5-[(3R)-3-tert-butoxypyrrolidin-1-yl]-2-[[5-methyl-3-(6-methyl-3-pyridyl)isoxazol-4-yl]methyl]pyridazin-3-one], for which the “Efficacy (GABA) %” value in test [1] (setting [3]) is on record as 109%. For the same compound, the “Fold increase h-GABA-A α5β3γ2 oocyte” value in test [1] (setting [4]) is on record as 2.09. Further, the affinity in test [2] (setting [5]) corresponds to a Ki of 24.8 nM.

In the case of `Cc1ccc(-c2noc(C)c2Cn2ncc(N3CC[C@@H](O)C3)cc2=O)cn1` [Example 3, 5-[(3R)-3-hydroxypyrrolidin-1-yl]-2-[[5-methyl-3-(6-methyl-3-pyridyl)isoxazol-4-yl]methyl]pyridazin-3-one], the “Efficacy (GABA) %” value in test [1] (setting [3]) amounted to 110%. In addition, the “Fold increase h-GABA-A α5β3γ2 oocyte” value in test [1] (setting [4]) is listed as 2.1. Besides, the Ki in test [2] (setting [5]) was 10.6 nM.

As for `Cc1onc(-c2ccc(Cl)nc2)c1Cn1ncc(N2CC3(CCOCC3)C2)cc1=O` [Example 257, 2-((3-(6-chloropyridin-3-yl)-5-methylisoxazol-4-yl)methyl)-5-(7-oxa-2-azaspiro[3.5]nonan-2-yl)pyridazin-3(2H)-one], the “Efficacy (GABA) %” value in test [1] (setting [3]) was 108%. The “Fold increase h-GABA-A α5β3γ2 oocyte” value in test [1] (setting [4]) was 2.08. In test [2] (setting [5]), the affinity corresponds to a Ki of 36.6 nM.

On to `Cc1ccc(-c2noc(C)c2Cn2ncc(N3CC4(C[C@@H](F)CO4)C3)cc2=O)cn1` [Example 200, 5-[(7R)-7-fluoro-5-oxa-2-azaspiro[3.4]octan-2-yl]-2-[[5-methyl-3-(6-methyl-3-pyridyl)isoxazol-4-yl]methyl]pyridazin-3-one], for which the “Efficacy (GABA) %” value in test [1] (setting [3]) was 86%. Further, the “Fold increase h-GABA-A α5β3γ2 oocyte” value in test [1] (setting [4]) is recorded as 1.86. The same compound came in with a Ki in test [2] (setting [5]) of 18.6 nM.

Take `Cc1onc(-c2ccc(Cl)nc2)c1Cn1ncc(N2CCN(c3ccnnc3)CC2)cc1=O` [Example 263, 2-((3-(6-chloropyridin-3-yl)-5-methylisoxazol-4-yl)methyl)-5-(4-(pyridazin-4-yl)piperazin-1-yl)pyridazin-3(2H)-one]: the “Efficacy (GABA) %” value in test [1] (setting [3]) stood at 205%. Besides, in test [1] (setting [4]), the “Fold increase h-GABA-A α5β3γ2 oocyte” value is on record as 3.05. In test [2] (setting [5]), this compound registered a Ki of 4.2 nM.

With `CCOc1ccc(-c2cnn(Cc3c(-c4ccc(C)nc4)noc3C)c(=O)c2)cc1` [Example 79, 5-(4-ethoxyphenyl)-2-((5-methyl-3-(6-methylpyridin-3-yl)isoxazol-4-yl)methyl)pyridazin-3(2H)-one], the “Efficacy (GABA) %” value in test [1] (setting [3]) was 111%. For the same compound, the “Fold increase h-GABA-A α5β3γ2 oocyte” value in test [1] (setting [4]) is 2.11. In addition, in test [2] (setting [5]), affinity was put at a Ki of 16.1 nM.

With `Cc1ccc(-c2noc(C)c2Cn2ncc(N3CCOC(C)(C)C3)cc2=O)cn1` [Example 6, 5-(2,2-dimethylmorpholin-4-yl)-2-((5-methyl-3-(6-methylpyridin-3-yl)-1,2-oxazol-4-yl)methyl)pyridazin-3-one], in test [1] (setting [3]), the “Efficacy (GABA) %” value is listed as 145%. Also, in test [1] (setting [4]), the “Fold increase h-GABA-A α5β3γ2 oocyte” value is recorded as 2.45. In test [2] (setting [5]), the inhibitory constant (Ki) came out at 0.6 nM.

Turning to `CCO[C@H]1COC2(C1)CN(c1cnn(Cc3c(-c4ccc(C)nc4)noc3C)c(=O)c1)C2` [Example 135, 5-[(7R)-7-ethoxy-5-oxa-2-azaspiro[3.4]octan-2-yl]-2-[[5-methyl-3-(6-methyl-3-pyridyl)isoxazol-4-yl]methyl]pyridazin-3-one], the “Efficacy (GABA) %” value in test [1] (setting [3]) stood at 119%. Also, the “Fold increase h-GABA-A α5β3γ2 oocyte” value in test [1] (setting [4]) was 2.19. The compound further gave a Ki in test [2] (setting [5]) of 28.1 nM.

Turning to `CCOC1CN(c2cnn(Cc3c(-c4ccc(C)nn4)noc3CF)c(=O)c2)C1` [Example 279, 5-(3-ethoxyazetidin-1-yl)-2-((5-(fluoromethyl)-3-(6-methylpyridazin-3-yl)isoxazol-4-yl)methyl)pyridazin-3(2H)-one], in test [1] (setting [3]), the “Efficacy (GABA) %” value amounted to 87%. Further, the “Fold increase h-GABA-A α5β3γ2 oocyte” value in test [1] (setting [4]) is on record as 1.87. In test [2] (setting [5]), this compound returned a Ki of 8.6 nM.

For `Cc1onc(-c2ccc(Cl)cn2)c1Cn1ncc(N2CCN(C(=O)C3(C)CC3)CC2)cc1=O` [Example 16, 2-((3-(5-Chloropyridin-2-yl)-5-methylisoxazol-4-yl)methyl)-5-(4-(1-methylcyclopropanecarbonyl)piperazin-1-yl)pyridazin-3(2H)-one], the “Efficacy (GABA) %” value in test [1] (setting [3]) turned out to be 139%. Also, the “Fold increase h-GABA-A α5β3γ2 oocyte” value in test [1] (setting [4]) was found to be 2.39. Besides, the Ki in test [2] (setting [5]) was found to be 2.6 nM.

Regarding `CCOC1CN(c2cnn(Cc3c(-c4ccc(Cl)cc4)noc3C)c(=O)c2)C1` [Example 161, 2-[[3-(4-chlorophenyl)-5-methyl-isoxazol-4-yl]methyl]-5-(3-ethoxyazetidin-1-yl)pyridazin-3-one], the “Efficacy (GABA) %” value in test [1] (setting [3]) is on record as 56%. Besides, in test [1] (setting [4]), the “Fold increase h-GABA-A α5β3γ2 oocyte” value worked out at 1.56. Moreover, in test [2] (setting [5]), the Ki stood at 7.8 nM.

With `Cc1ccc(-c2noc(C)c2Cn2ncc(N3CCC(C(=O)NC4CC4)CC3)cc2=O)cn1` [Example 27, N-cyclopropyl-1-[1-[[5-methyl-3-(6-methyl-3-pyridyl)isoxazol-4-yl]methyl]-6-oxo-pyridazin-4-yl]piperidine-4-carboxamide], the “Efficacy (GABA) %” value in test [1] (setting [3]) was found to be 100%. In addition, the “Fold increase h-GABA-A α5β3γ2 oocyte” value in test [1] (setting [4]) stood at 2. In addition, in test [2] (setting [5]), the inhibition constant Ki worked out at 14.2 nM.

With `Cc1ccc(-c2noc(C)c2Cn2ncc(N3CC[C@@H](C(=O)NC4CC4)C3)cc2=O)cn1` [Example 56, (3R)—N-cyclopropyl-1-[1-[[5-methyl-3-(6-methyl-3-pyridyl)isoxazol-4-yl]methyl]-6-oxo-pyridazin-4-yl]pyrrolidine-3-carboxamide], the “Efficacy (GABA) %” value in test [1] (setting [3]) turned out to be 247%. Besides, in test [1] (setting [4]), the “Fold increase h-GABA-A α5β3γ2 oocyte” value amounted to 3.47. Further, in test [2] (setting [5]), the Ki came out at 33.4 nM.

With `Cc1ccc(-c2noc(C)c2Cn2ncc(N3CC4(CC(F)CCO4)C3)cc2=O)nn1` (single isomer, unassigned) [Example 287], the “Efficacy (GABA) %” value in test [1] (setting [3]) was 77%. For the same compound, the “Fold increase h-GABA-A α5β3γ2 oocyte” value in test [1] (setting [4]) amounted to 1.77. Also, in test [2] (setting [5]), the affinity corresponds to a Ki of 3.8 nM.

With `Cc1onc(-c2ccc(C(F)(F)F)nn2)c1Cn1ncc(N2CC3(CCCCO3)C2)cc1=O` [Example 335, 2-((5-methyl-3-(6-(trifluoromethyl)pyridazin-3-yl)isoxazol-4-yl)methyl)-5-(5-oxa-2-azaspiro[3.5]nonan-2-yl)pyridazin-3(2H)-one], in test [1] (setting [3]), the “Efficacy (GABA) %” value was determined as 90%. Further, the “Fold increase h-GABA-A α5β3γ2 oocyte” value in test [1] (setting [4]) is given as 1.9. Further, the Ki in test [2] (setting [5]) stood at 9.2 nM.

Regarding `Cc1ccc(-c2noc(C)c2Cn2ncc(N3CC4(CC(C)CO4)C3)cc2=O)nn1` (single isomer, unassigned) [Example 241, 2-[[5-methyl-3-(6-methylpyridazin-3-yl)isoxazol-4-yl]methyl]-5-[(7S)-7-methyl-5-oxa-2-azaspiro[3.4]octan-2-yl]pyridazin-3-one or enantiomer], in test [1] (setting [3]), the “Efficacy (GABA) %” value turned out to be 80%. The “Fold increase h-GABA-A α5β3γ2 oocyte” value in test [1] (setting [4]) worked out at 1.8. Affinity in test [2] (setting [5]) was put at a Ki of 5.4 nM.

`COc1ccccc1C1CCN(c2cnn(Cc3c(-c4ccc(C)nc4)noc3C)c(=O)c2)CC1` [Example 61, 5-[4-(2-methoxyphenyl)-1-piperidyl]-2-[[5-methyl-3-(6-methyl-3-pyridyl)isoxazol-4-yl]methyl]pyridazin-3-one]: in test [1] (setting [3]), the “Efficacy (GABA) %” value was 76%. Also, the “Fold increase h-GABA-A α5β3γ2 oocyte” value in test [1] (setting [4]) came to 1.76. The Ki in test [2] (setting [5]) turned out to be 15.4 nM.

With `Cc1cc(-c2noc(C)c2Cn2ncc(N3CCN(C4CC4)CC3)cc2=O)no1` [Example 63, 5-(4-cyclopropylpiperazin-1-yl)-2-[[5-methyl-3-(5-methylisoxazol-3-yl)isoxazol-4-yl]methyl]pyridazin-3-one], in test [1] (setting [3]), the “Efficacy (GABA) %” value was 41%. Also, the “Fold increase h-GABA-A α5β3γ2 oocyte” value in test [1] (setting [4]) worked out at 1.41. In addition, in test [2] (setting [5]), the affinity, expressed as Ki, was 5.9 nM.
